{
  "source": "patent US20010044382A1",
  "about": "“Herbicide” (priority 1998, published 2001)",
  "assay_type_in_all_cases": "in vivo",
  "key": {"Ipomoea": {"tested_on": "Ipomoea", "test": "Pre-emergence test (greenhouse), herbicidal action", "experimental": "(§1) Experiment Description—Pre-emergence Test:\n(§2) The test plants are sown in standard soil in plastics pots under greenhouse conditions. Directly after sowing, the test compounds are applied in aqueous suspension (500 liters of water/ha). The test plants are then grown on in the greenhouse under optimum conditions. The rates of application depend on the optimum doses ascertained under field conditions and greenhouse conditions. The tests are evaluated after 26 days (% action, 100%=plants have died, 0%=no phytotoxic action)."}, "Polygonum": {"tested_on": "Polygonum", "test": "Pre-emergence test (greenhouse), herbicidal action", "experimental": "as §1, §2"}, "Xanthium": {"tested_on": "Xanthium", "test": "Pre-emergence test (greenhouse), herbicidal action", "experimental": "as §1, §2"}, "Digitaria": {"tested_on": "Digitaria", "test": "Post-emergence test (greenhouse), herbicidal action", "settings": "halosulfuron 100 g/ha, after 20 days", "experimental": "(§3) Experiment Description—Post-emergence Test:\n(§4) The test plants are grown to the 2- to 3-leaf stage in plastics pots under greenhouse conditions. A standard soil is used as cultivation substrate. At the 2- to 3-leaf stage, the herbicide is applied to the test plants on its own and as a mixture. The application is carried out using an aqueous suspension of the test compounds in 500 liters of water/ha. The rates of application depend on the optimum doses ascertained under field conditions and greenhouse conditions. The tests are evaluated after 20 days (% action, 100%=plant has died, 0%=no phytotoxic action)."}, "Cyperus": {"tested_on": "Cyperus", "test": "Post-emergence test (greenhouse), herbicidal action", "settings": "primisulfuron 20 g/ha, after 20 days", "experimental": "as §3, §4"}, "[1]": {"settings": "atrazine 200 g/ha, after 26 days (Table 7)"}, "[2]": {"settings": "atrazine 200 g/ha, after 26 days (Table 5)"}, "[3]": {"settings": "terbuthylazine 200 g/ha, after 26 days (Table 4)"}, "[4]": {"settings": "terbuthylazine 200 g/ha, after 26 days (Table 6)"}},
  "data": [
    {"compound": "CCNc1nc(Cl)nc(NC(C)C)n1", "note": "[Atrazine, atrazine]", "values": [
      {"measurement": "% action", "setting": "Ipomoea; [1]", "result": 70, "unit": "%"},
      {"measurement": "% action", "setting": "Polygonum; [2]", "result": 90, "unit": "%"},
      {"measurement": "% action", "setting": "Xanthium; [2]", "result": 0, "unit": "%"},
      {"measurement": "% action", "setting": "Xanthium; [1]", "result": 0, "unit": "%"}
    ]},
    {"compound": "COc1cc(OC)nc(NC(=O)NS(=O)(=O)c2c(C(=O)O)c(Cl)nn2C)n1", "note": "[Halosulfuron, halosulfuron]", "values": [
      {"measurement": "% action", "setting": "Digitaria", "result": 25, "unit": "%"}
    ]},
    {"compound": "O=C(Nc1nc(OC(F)F)cc(OC(F)F)n1)NS(=O)(=O)c1ccccc1C(=O)O", "note": "[Primisulfuron, primisulfuron]", "values": [
      {"measurement": "% action", "setting": "Cyperus", "result": 90, "unit": "%"}
    ]},
    {"compound": "CCNc1nc(Cl)nc(NC(C)(C)C)n1", "note": "[Terbuthylazine, terbuthylazine]", "values": [
      {"measurement": "% action", "setting": "Ipomoea; [3]", "result": 30, "unit": "%"},
      {"measurement": "% action", "setting": "Ipomoea; [4]", "result": 30, "unit": "%"},
      {"measurement": "% action", "setting": "Polygonum; [3]", "result": 60, "unit": "%"},
      {"measurement": "% action", "setting": "Polygonum; [4]", "result": 60, "unit": "%"},
      {"measurement": "% action", "setting": "Xanthium; [3]", "result": 0, "unit": "%"},
      {"measurement": "% action", "setting": "Xanthium; [4]", "result": 0, "unit": "%"}
    ]}
  ]
}
